The record followed here is US20240059689A1, “PURINE DERIVATIVES AS ANTICANCER AGENTS” (Tango Therapeutics, Inc., priority 2021, published 2024).

The target of assay [1] is USP1-UAF1 (Homo sapiens, UniProt O94782). Kind of assay: Ubiquitin Rhodamine assay of USP1-UAF1 activity. It is filed as biochemical. The method, then: Certain compounds of the disclosure were assessed for USP1-UAF1 activity in a Ubiquitin Rhodamine assay as described in Biology Example 1.
Assay [2] concerns monoubiquitinated PCNA. Kind of assay: AlphaLISA assay measuring monoubiquitinated PCNA in MDA-MB-436. To be noted: Homo sapiens, MDA-MB-436, monoubiquitinated PCNA, read-out: Alpha Lisa IC50. The format is cell-based. An excerpt: Table 1 also indicates IC50 values for exemplary compounds in an AlphaLISA assay measuring monoubiquitinated PCNA in a BRCA1 mutant cell line (MDA-MB-436; column 7).

Assay [3] has as its system MDA-MB-436. As to the kind of experiment: Viability assay, BRCA1 mutant cell line MDA-MB-436. To be noted: Homo sapiens, MDA-MB-436, viability, BRCA1 mutant MDA-MB-436; read-out: MDA-MB-436 rel IC50. The format is cell-based. An excerpt:
(§1) Table 1 also indicates IC50 values in a viability assay for a non-isogenic pair of BRCA1 mutant (column 5-MDA-MB-436) and BRCA1 WT (column 6—HCC1954) cell lines. These values indicate the effect of treatment with compound on cell survival.

In assay [4] the test system is HCC1954. As to the kind of experiment: Viability assay, BRCA1 WT cell line HCC1954. It is filed as cell-based. To be noted: Homo sapiens, HCC1954, viability, read-out: HCC1954 rel IC50.
Description: as §1

Structures are written as SMILES. pIC50: −log10 of the molar value.

USP1-UAF1, sequence (O94782 whole entry): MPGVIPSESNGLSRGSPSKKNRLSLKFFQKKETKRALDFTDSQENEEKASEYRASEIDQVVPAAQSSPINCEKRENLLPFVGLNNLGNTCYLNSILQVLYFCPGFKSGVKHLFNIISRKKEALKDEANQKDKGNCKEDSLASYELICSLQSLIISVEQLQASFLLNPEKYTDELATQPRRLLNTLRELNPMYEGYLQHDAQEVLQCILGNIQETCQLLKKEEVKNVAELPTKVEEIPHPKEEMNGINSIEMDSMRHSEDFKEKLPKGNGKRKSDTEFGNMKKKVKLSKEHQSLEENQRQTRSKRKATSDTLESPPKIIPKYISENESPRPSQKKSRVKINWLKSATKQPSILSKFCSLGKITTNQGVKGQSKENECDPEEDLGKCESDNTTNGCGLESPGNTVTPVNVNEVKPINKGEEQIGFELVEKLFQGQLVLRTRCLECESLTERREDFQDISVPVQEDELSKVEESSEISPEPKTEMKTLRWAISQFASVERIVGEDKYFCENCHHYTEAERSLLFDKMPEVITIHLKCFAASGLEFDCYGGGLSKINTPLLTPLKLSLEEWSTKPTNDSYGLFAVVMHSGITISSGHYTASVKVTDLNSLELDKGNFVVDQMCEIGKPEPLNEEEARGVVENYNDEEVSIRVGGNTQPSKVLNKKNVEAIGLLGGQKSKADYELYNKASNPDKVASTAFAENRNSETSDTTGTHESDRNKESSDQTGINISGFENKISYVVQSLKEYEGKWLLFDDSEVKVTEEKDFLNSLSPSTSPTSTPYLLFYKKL
USP1-UAF1, sequence (Q8TAF3 whole entry partner): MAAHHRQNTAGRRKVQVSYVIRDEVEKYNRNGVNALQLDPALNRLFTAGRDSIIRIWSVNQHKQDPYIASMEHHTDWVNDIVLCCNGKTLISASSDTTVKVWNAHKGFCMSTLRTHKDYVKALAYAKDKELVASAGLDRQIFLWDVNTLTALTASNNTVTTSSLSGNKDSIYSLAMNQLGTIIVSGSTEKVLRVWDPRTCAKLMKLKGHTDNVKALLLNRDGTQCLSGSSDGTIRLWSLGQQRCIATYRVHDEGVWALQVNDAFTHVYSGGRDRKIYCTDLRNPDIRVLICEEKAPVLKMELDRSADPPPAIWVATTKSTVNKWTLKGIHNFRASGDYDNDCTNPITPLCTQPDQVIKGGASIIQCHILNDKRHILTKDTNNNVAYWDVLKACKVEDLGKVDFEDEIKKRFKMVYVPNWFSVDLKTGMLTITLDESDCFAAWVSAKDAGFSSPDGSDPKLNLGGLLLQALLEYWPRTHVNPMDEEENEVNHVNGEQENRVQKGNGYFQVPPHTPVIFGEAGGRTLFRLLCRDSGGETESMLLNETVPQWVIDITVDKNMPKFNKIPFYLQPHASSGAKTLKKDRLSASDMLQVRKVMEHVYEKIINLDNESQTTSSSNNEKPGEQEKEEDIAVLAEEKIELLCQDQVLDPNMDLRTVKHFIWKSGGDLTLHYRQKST

Take `C=C(C)c1c(F)cccc1-c1nc(C)c2c(n1)n(Cc1ccc(-c3nc(C(F)(F)F)cn3C)cc1)c(=N)n2C` [Example A-31, 2-(3-fluoro-2-(prop-1-en-2-yl)phenyl)-6,7-dimethyl-9-(4-(1-methyl-4-(trifluoromethyl)-1H-imidazol-2-yl)benzyl)-7,9-dihydro-8H-purin-8-imine]: the pIC50 in assay [1] is more than 7.52; in assay [2] it was more than 7.00; in assay [3] it was more than 7.00; in assay [4], 5.00 to 6.60.
Regarding `COc1ncccc1-c1ncc2c(n1)n(Cc1ccc(-c3nc(C(F)(F)F)cn3C)cc1)c(=N)n2CC(F)(F)F` [Example T-097, 2-(2-methoxy-3-pyridyl)-9-[[4-[1-methyl-4-(trifluoromethyl)imidazol-2-yl]phenyl]methyl]-7-(2,2,2-trifluoroethyl)purin-8-imine], the pIC50 in assay [1] was 7.00 to 7.52; in assay [2] it was 5.00 to 6.60; in assay [3], 6.60 to 7.00; in assay [4], not above 5.00.
For `COc1nc(C)nc(C2CC2)c1-c1ncc2c(n1)n(Cc1ccc(-c3nc(C(F)(F)F)cn3C)cc1)c(=N)n2C` [Example T-146, 2-(4-cyclopropyl-6-methoxy-2-methyl-pyrimidin-5-yl)-7-methyl-9-[[4-[1-methyl-4-(trifluoromethyl)imidazol-2-yl]phenyl]methyl]purin-8-imine], in that order: 7.00 to 7.52, more than 7.00, more than 7.00 and not above 5.00.
Regarding `Cn1cc(C(F)(F)F)nc1-c1ccc(Cn2c(=N)n(C)c3cnc(-c4ccccc4C4CC4)nc32)cc1` [Example T-087, 2-(2-cyclopropylphenyl)-7-methyl-9-[[4-[1-methyl-4-(trifluoromethyl)imidazol-2-yl]phenyl]methyl]purin-8-imine], the pIC50 in assay [1] was more than 7.52; in assay [2], more than 7.00; in assay [3], more than 7.00; in assay [4] it was 5.00 to 6.60.
Regarding `Cn1cc(C(F)(F)F)nc1-c1ccc(Cn2c(=N)n(CC(F)(F)F)c3cnc(-c4cccnc4OC(F)F)nc32)cc1` [Example T-125, 2-[2-(difluoromethoxy)-3-pyridyl]-9-[[4-[1-methyl-4-(trifluoromethyl)imidazol-2-yl]phenyl]methyl]-7-(2,2,2-trifluoroethyl)purin-8-imine], the pIC50 in assay [1] was 7.00 to 7.52; in assay [2], 6.60 to 7.00; in assay [3], 6.60 to 7.00; in assay [4], 5.00 to 6.60.
Consider `CCn1cc(C(F)(F)F)nc1-c1ccc([C@@H](C)n2c(=N)n(CC(F)(F)F)c3cnc(-c4c(OC)ncnc4C4CC4)nc32)cc1` [Example T-106, (R)-2-(4-cyclopropyl-6-methoxypyrimidin-5-yl)-9-(1-(4-(1-ethyl-4-(trifluoromethyl)-1H-imidazol-2-yl)phenyl)ethyl)-7-(2,2,2-trifluoroethyl)-7H-purin-8(9H)-imine], for which the pIC50 in assay [1] is more than 7.52; in assay [2] it was more than 7.00; in assay [3], more than 7.00; in assay [4], not above 5.00.
On to `Cn1cc(C(F)(F)F)nc1-c1ccc(Cn2c(=N)n(C)c3cnc(-c4cccnc4OC(F)(F)F)nc32)cc1` [Example T-053, 7-methyl-9-[[4-[I-methyl-4-(trifluoromethyl)imidazol-2-yl]phenyl]methyl]-2-[2-(trifluoromethoxy)-3-pyridyl]purin-8-imine], for which the negative-log IC50 (pIC50) in assay [1] was more than 7.52; in assay [2] it was 6.60 to 7.00; in assay [3] it was more than 7.00; in assay [4], not above 5.00.
In the case of `COc1ncccc1-c1ncc2c(n1)n(Cc1ccc(-c3nc(C(F)(F)F)cn3C)cc1)c(=N)n2C` [Example T-090], the pIC50 in assay [1] was 5.00 to 7.00; in assay [2], 5.00 to 6.60; in assay [3] it was 5.00 to 6.60; in assay [4], not above 5.00.
On to `COc1ncnc(C2CC2)c1-c1ncc2c(n1)n(Cc1ccc(-n3nc(C(F)(F)F)cc3OC)cc1)c(=N)n2CC(F)F` [Example T-113, 2-(4-cyclopropyl-6-methoxy-pyrimidin-5-yl)-7-(2,2-difluoroethyl)-9-[[4-[5-methoxy-3-(trifluoromethyl)pyrazol-1-yl]phenyl]methyl]purin-8-imine], for which the pIC50 is more than 7.52 in assay [1], more than 7.00 in assay [2], more than 7.00 in assay [3] and not above 5.00 in assay [4].
For `CC(C)c1ccccc1-c1ncc2c(n1)n(Cc1ccc(-c3nc(C(F)(F)F)cn3C)cc1)c(=N)n2C` [Example B-2, 2-(2-isopropylphenyl)-7-methyl-9-(4-(1-methyl-4-(trifluoromethyl)-1H-imidazol-2-yl)benzyl)-7H-purin-8(9H)-imine], the negative logarithm of the IC50 (pIC50) in assay [1] was more than 7.52; in assay [2] it was more than 7.00; in assay [3], more than 7.00; in assay [4] it was not above 5.00.
Consider `COc1ncnc(C2CC2)c1-c1ncc2c(n1)n(Cc1ccc(-c3nc(C(F)(F)F)sc3C)cc1)c(=N)n2CC(F)(F)F` [Example T-128], for which the pIC50 in assay [1] is more than 7.52; in assay [2], more than 7.00; in assay [3], more than 7.00; in assay [4], 5.00 to 6.60.
In the case of `Cn1cc(C(F)(F)F)nc1-c1ccc(Cn2c(=N)n(C)c3cnc(-c4cccnc4N4CC(F)C4)nc32)cc1` [Example T-023], the pIC50 is 5.00 to 7.00 in assay [1], 5.00 to 6.60 in assay [2], 5.00 to 6.60 in assay [3] and not above 5.00 in assay [4].
As for `CC(C)c1ccccc1-c1nc(-c2ccccn2)c2c(n1)n(Cc1ccc(-c3nc(C(F)(F)F)cn3C)cc1)c(=N)n2C` [Example A-35, 2-(2-isopropylphenyl)-7-methyl-9-(4-(1-methyl-4-(trifluoromethyl)-1H-imidazol-2-yl)benzyl)-6-(pyridin-2-yl)-7,9-dihydro-8H-purin-8-imine], the pIC50 in assay [1] was 7.00 to 7.52; in assay [2] it was 6.60 to 7.00; in assay [3] it was 5.00 to 6.60; in assay [4] it was 5.00 to 6.60.
On to `CNc1nc(OC)c(-c2ncc3c(n2)n(Cc2ccc(-c4nc(C(F)(F)F)cn4C)cc2)c(=N)n3C)c(C2CC2)n1` [Example T-122, 4-cyclopropyl-5-[8-imino-7-methyl-9-[[4-[1-methyl-4-(trifluoromethyl)imidazol-2-yl]phenyl]methyl]purin-2-yl]-6-methoxy-N-methyl-pyrimidin-2-amine], for which the pIC50 in assay [1] is 5.00 to 7.00; in assay [2], 5.00 to 6.60; in assay [3] it was 6.60 to 7.00; in assay [4], not above 5.00.
The like results for `Cn1cc(C(F)(F)F)nc1-c1ccc(Cn2c(=N)n(C)c3cnc(-c4ccc(F)cc4OC(F)F)nc32)cc1` [Example T-001, 2-[2-(difluoromethoxy)-4-fluoro-phenyl]-7-methyl-9-[[4-[1-methyl-4-(trifluoromethyl)imidazol-2-yl]phenyl]methyl]purin-8-imine] were, in that order, 7.00 to 7.52, 5.00 to 6.60, 5.00 to 6.60 and 5.00 to 6.60.
For the compound `Cn1cc(C(F)(F)F)nc1-c1ccc(Cn2c(=N)n(C)c3cnc(-c4ccccc4[C@H](O)C(F)(F)F)nc32)cc1` (single isomer, unassigned) [Example T-129, 2,2,2-trifluoro-[2-[8-imino-7-methyl-9-[[4-[I-methyl-4-(trifluoromethyl)imidazol-2-yl]phenyl]methyl]purin-2-yl]phenyl]ethanol], the pIC50 in assay [1] is 7.00 to 7.52; in assay [2], 6.60 to 7.00; in assay [3], 6.60 to 7.00; in assay [4] it was not above 5.00.
Turning to `COCCn1c(=N)n(Cc2ccc(-c3nc(C(F)(F)F)cn3C)cc2)c2nc(-c3c(OC)ncnc3C3CC3)ncc21` [Example T-134, 2-(4-cyclopropyl-6-methoxy-pyrimidin-5-yl)-7-(2-methoxyethyl)-9-[[4-[1-methyl-4-(trifluoromethyl)imidazol-2-yl]phenyl]methyl]purin-8-imine], the pIC50 was 5.00 to 7.00 in assay [1], 5.00 to 6.60 in assay [2], 6.60 to 7.00 in assay [3] and not above 5.00 in assay [4].
For `COc1ncnc(C2CC2)c1-c1ncc2c(n1)n(Cc1cc(F)c(-c3nc(C(F)(F)F)cn3C)c(F)c1)c(=N)n2CC(F)(F)F` [Example T-126, 2-(4-cyclopropyl-6-methoxy-pyrimidin-5-yl)-9-[[3,5-difluoro-4-[1-methyl-4-(trifluoromethyl)imidazol-2-yl]phenyl]methyl]-7-(2,2,2-trifluoroethyl)purin-8-imine], in that order: 7.00 to 7.52, more than 7.00, more than 7.00 and not above 5.00.
In the case of `COc1cc(C(F)(F)F)nn1-c1ccc(Cn2c(=N)n(C)c3cnc(-c4ccccc4C(F)(F)F)nc32)cc1` [Example T-004], the pIC50 is 7.00 to 7.52 in assay [1], 6.60 to 7.00 in assay [2], 5.00 to 6.60 in assay [3] and 5.00 to 6.60 in assay [4].
For `CC(C)c1ccccc1-c1ncc2c(n1)n(Cc1ccc(-c3nc(C(F)(F)F)c(Br)n3C)cc1)c(=N)n2C` [Example T-059], the pIC50 in assay [1] is more than 7.52; in assay [2], more than 7.00; in assay [3], more than 7.00; in assay [4], 5.00 to 6.60.
Take `COc1ncnc(C2CC2)c1-c1ncc2c(n1)n(Cc1ccc(-c3nc(C(F)(F)F)cn3C(C)C)cc1)c(=N)n2CC(F)(F)F` [Example T-108]: the pIC50 is 7.00 to 7.52 in assay [1], more than 7.00 in assay [2], more than 7.00 in assay [3] and not above 5.00 in assay [4].
